Data reported in PMC8533391 (2021).

Test system: d(GTTAATCGCTGG) double-stranded DNA 12-oligomer (DNA, duplex) GTTAATCGCTGG/CCAGCGATTAAC
Assay: UV melting at 260 nm
Settings: Na+ (0.05 mM NaOH), 10 μM compound, 2.5 μM DNA, cacodylate, pH 7.2

| SMILES | ΔTm (derived from two Tm (47.4 ± 0.6, free 48.3 ± 0.3)) [°C] | ΔTm (derived from two Tm (46.2 ± 0.8, free 48.3 ± 0.3)) [°C] |
| --- | --- | --- |
| C(=N\[C@H]1CC[C@H](/N=C/c2nccs2)CC1)/c1nccs1 | -0.9 |  |
| C(=N\[C@H]1CC[C@H](/N=C/c2nccs2)CC1)/c1nccs1.C(=N\[C@H]1CC[C@H](/N=C/c2nccs2)CC1)/c1nccs1.[Ag+].[Ag+] |  | -2.1 |
